# Laboratory results: patent publication US12275729B2 (Merck Sharp & Dohme LLC, priority 2017, dated 2025)
# Biological target: IDO1 (Homo sapiens, UniProt P14902)
# Assay: IDO1 Cellular Assay in HeLa Cells Stimulated with IFNγ
# Assay type: cell-based
# Settings: about 48 hours, read-out: Hela IC50
# Method: Biological Assays IDO1 Cellular Assay in HeLa Cells Stimulated with IFNγ
# HeLa cells were cultured in complete HeLa culture medium (90% EMEM, 10% heat-inactivated fetal bovine serum) and expanded to about 1×10^9 cells. The cells were then collected and frozen down at 1×10^7 cells/vial in 1 mL frozen medium (90% complete HeLa culture medium, 10% DMSO).
# Compounds to be tested were serially diluted in ten 3-fold steps in DMSO starting from 10 mM DMSO stocks in Echo low volume plate(s).
# Frozen HeLa cells were thawed and transferred into HeLa assay medium (99% complete HeLa culture medium, 1% Pen/Strep) with 20 mL medium/vial of cells. The cells were spun down at 250 g in a table top centrifuge for 5 min and suspended in same volume of HeLa assay medium. The cells were then counted and adjusted to a density of 2×10^5 cells/mL in HeLa assay medium. Sterile L-tryptophan were added to the cells with final concentration of 300 uM L-tryptophan. A small aliquot (2 mL/plate) of HeLa cells were set aside and were not treated with IFNγ, to serve as the Max-E control.
# HeLa cells with and without IFNγ were dispensed to the respective wells of 384-well assay plates containing the compounds. The plates were incubated for about 48 hours at a 37° C., 5% CO2 incubator. Afterwards, 12 μL of 0.5 M methyl isonipecotate in dimethyl sulfoxide were added into each well and the plates were sealed and incubated at 37° C. without CO2 overnight. The plates were centrifuged for 1 min at 200×g. The resulting fluorescence was measured in a Spectramax plate reader (Molecular Devices) with a 400 nm excitation filter and a 510 nm emission filter.
# Potencies were calculated by […] least squares fit to the four parameter logistic IC50 equation.
# IDO1, sequence (P14902 whole entry): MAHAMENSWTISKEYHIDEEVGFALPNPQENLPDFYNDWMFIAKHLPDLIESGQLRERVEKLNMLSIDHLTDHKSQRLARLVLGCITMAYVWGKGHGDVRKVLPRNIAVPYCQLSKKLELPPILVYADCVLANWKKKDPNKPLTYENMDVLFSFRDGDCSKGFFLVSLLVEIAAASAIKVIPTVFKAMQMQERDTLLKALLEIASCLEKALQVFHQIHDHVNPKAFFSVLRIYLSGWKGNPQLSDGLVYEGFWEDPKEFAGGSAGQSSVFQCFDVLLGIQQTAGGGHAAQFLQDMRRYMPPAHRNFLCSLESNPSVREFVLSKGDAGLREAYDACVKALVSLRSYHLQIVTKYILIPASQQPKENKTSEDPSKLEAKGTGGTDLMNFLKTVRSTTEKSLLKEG
row,SMILES,IC50 [nM]
1,"CC(NC(=O)c1ccc(F)cc1)c1ccc2c(n1)C(F)CCN2C(=O)C1CC1 (single isomer, unassigned) [Example 203, N-(1-(5-(cyclopropanecarbonyl)-8-fluoro-5,6,7,8-tetrahydro-1,5-naphthyridin-2-yl)ethyl)-4-fluorobenzamide]",7510
2,"COC(C(=O)Nc1ccc(F)cn1)c1ccc2c(c1)CCCN2C(=O)C1CC1 (stereo not shown) [Example 155, 2-(1-(cyclopropanecarbonyl)-1,2,3,4-tetrahydroquinolin-6-yl)-N-(5-fluoropyridin-2-yl)-2-methoxyacetamide]",273
3,"CC(C)c1cc(C(=O)NCc2ccc3c(c2)CCCN3C(=O)c2cccc(Cl)c2)on1 [Example 18, N-{[1-(3-chlorobenzene-1-carbonyl)-1,2,3,4-tetrahydroquinolin-6-yl]methyl}-3-(propan-2-yl)-1,2-oxazole-5-carboxamide]",186
4,"Cc1cc(C(=O)NCc2ccc3c(c2)CCCN3C(=O)CC(C)C)ccc1Cl [Example 4, 4-chloro-3-methyl-N-{[1-(3-methylbutanoyl)-1,2,3,4-tetrahydroquinolin-6-yl]methyl}benzamide]",298
5,"CC(C(=O)Nc1ccc(F)cc1)c1ccc2c(c1)CCCN2C1CCOCC1 (stereo not shown) [Example 230, N-(4-fluorophenyl)-2-[1-(oxan-4-yl)-1,2,3,4-tetrahydroquinolin-6-yl]propanamide]",5790
6,"C[C@@H](NC(=O)c1ccc(F)cn1)c1ccc2c(c1)CCCN2C(=O)C1(F)CC1 (single isomer, unassigned) [Example 33]",729
7,"C[C@H](C(=O)Nc1ccc(F)cc1)c1ccc2c(c1)CCCN2C(=O)C1CN(C)CCO1 (stereo partly drawn) [Example 74, (2S)-N-(4-fluorophenyl)-2-[1-(4-methylmorpholine-2-carbonyl)-1,2,3,4-tetrahydroquinolin-6-yl]propanamide]",460

# More lines, now with the values ahead:
row,IC50 [nM],SMILES
1,5,"CC(C)C(=O)N1CCCc2cc(C(C)C(=O)Nc3ccc(F)cc3)ccc21 (stereo not shown) [Example 40, N-(4-fluorophenyl)-2-[1-(2-methylpropanoyl)-1,2,3,4-tetrahydroquinolin-6-yl]propanamide]"
2,61.8,"CO[C@@H](C)C(=O)N1CCCc2cc([C@H](C)C(=O)Nc3ccc(F)cc3)ccc21 (single isomer, unassigned) [Example 75]"
3,2.2,"CC(NC(=O)c1ccc(F)cc1)c1ccc2c(n1)CCCN2C(=O)c1ncccc1F (stereo not shown) [Example 283, 2-(1-(4-fluorobenzamido)ethyl)-5-(3-fluoropicolinoyl)-5,6,7,8-tetrahydro-1,5-naphthyridin-1-ium 2,2,2-trifluoroacetate]"
4,42.5,"CC(C)CC(=O)N1CCCc2cc(CNC(=O)c3ccc(C(F)(F)F)cc3)ccc21 [Example 7, N-{[1-(3-methylbutanoyl)-1,2,3,4-tetrahydroquinolin-6-yl]methyl}-4-(trifluoromethyl)benzamide]"
5,10.8,"CC(C)(C(=O)Nc1ccc(F)cc1)c1ccc2c(n1)CCCN2C(=O)C1CC1 [Example 184, 2-[5-(cyclopropanecarbonyl)-5,6,7,8-tetrahydro-1,5-naphthyridin-2-yl]-N-(4-fluorophenyl)-2-methylpropanamide]"
6,5.4,"CC(C(=O)Nc1ccc(F)cc1)c1ccc2c(c1)CCCN2C(=O)C1CCCO1 (stereo not shown) [Example 39, N-(4-fluorophenyl)-2-[1-(oxolane-2-carbonyl)-1,2,3,4-tetrahydroquinolin-6-yl]propanamide]"
7,105,"C[C@H](C(=O)Nc1ccc(F)cc1)c1ccc2c(c1)CCCN2C(=O)CC(F)(F)F [Example 91, (2S)-N-(4-fluorophenyl)-2-[1-(3,3,3-trifluoropropanoyl)-1,2,3,4-tetrahydroquinolin-6-yl]propanamide]"
8,56.4,"COc1ccc(C(=O)NCc2ccc3c(c2)CCCN3C(=O)CC(C)C)cc1 [Example 6, 4-methoxy-N-{[1-(3-methylbutanoyl)-1,2,3,4-tetrahydroquinolin-6-yl]methyl}benzamide]"
9,11.5,"CCn1ccc(C(=O)N2CCCc3nc(C(C)NC(=O)c4ccc(F)cc4)ccc32)n1 (stereo in doubt) [Example 143, N-{(1R)-1-[5-(1-ethyl-1H-pyrazole-3-carbonyl)-5,6,7,8-tetrahydro-1,5-naphthyridin-2-yl]ethyl}-4-fluorobenzamide]"
10,4.1,"O=C(c1cocn1)N1CCCc2cc(C3(C(=O)Nc4ccc(F)cn4)CCC3)ccc21 [Example 121, N-(5-fluoropyridin-2-yl)-1-[1-(1,3-oxazole-4-carbonyl)-1,2,3,4-tetrahydroquinolin-6-yl]cyclobutane-1-carboxamide]"
11,4.6,"Cc1cnc(C(=O)N2CCCc3cc(C(C)C(=O)Nc4ccc(F)cc4)ccc32)s1 (stereo not shown) [Example 41, N-(4-fluorophenyl)-2-[1-(5-methyl-1,3-thiazole-2-carbonyl)-1,2,3,4-tetrahydroquinolin-6-yl]propanamide]"
12,25.9,"COC(C)C(=O)N1CCCc2cc([C@H](C)C(=O)Nc3ccc(F)cc3)ccc21 (single isomer, unassigned) [Example 76]"
13,32.3,"C[C@H](C(=O)Nc1ccc(F)cc1)c1ccc2c(c1)CCCN2C(=O)[C@@H]1CCCO1 [Example 84, (2S)-N-(4-fluorophenyl)-2-{1-[(2S)-oxolane-2-carbonyl]-1,2,3,4-tetrahydroquinolin-6-yl]propanamide]"
14,1.5,"CC(C(=O)Nc1ccc(F)cc1)c1ccc2c(n1)CCCN2C(=O)C1CCCCO1 (single isomer, unassigned) [Example 159, N-(4-fluorophenyl)-2-[5-(oxane-2-carbonyl)-5,6,7,8-tetrahydro-1,5-naphthyridin-2-yl]propanamide]"
15,63.6,"C[C@@H](NC(=O)c1ccc(F)cc1)c1ccc2c(n1)CCCN2C(=O)C1CC1(F)F (stereo partly drawn) [Example 133, N-{(1R)-1-[5-(2,2-difluorocyclopropane-1-carbonyl)-5,6,7,8-tetrahydro-1,5-naphthyridin-2-yl]ethyl}-4-fluorobenzamide]"
16,55.7,"O=C(C1CC1)N1CCCc2nc(C3(C(=O)Nc4ccc(F)cn4)CCC3)ccc21 [Example 169, 1-[5-(cyclopropanecarbonyl)-5,6,7,8-tetrahydro-1,5-naphthyridin-2-yl]-N-(5-fluoropyridin-2-yl)cyclobutane-1-carboxamide]"
17,21.1,"CC(C)CC(=O)N1CCCc2cc(CNC(=O)c3ccc(I)cc3)ccc21 [Example 12, 4-iodo-N-{[1-(3-methylbutanoyl)-1,2,3,4-tetrahydroquinolin-6-yl]methyl}benzamide]"
18,51.6,"C[C@H](C(=O)Nc1ccc(F)cc1)c1ccc2c(c1)CCCN2C(=O)[C@@H]1CCOC1 [Example 78, (2S)-N-(4-fluorophenyl)-2-{1-[(3R)-oxolane-3-carbonyl]-1,2,3,4-tetrahydroquinolin-6-yl}propanamide]"

# Same assay, conditions: read-out: Hela IC50
row,IC50 [nM],SMILES
1,0.65,"CC(NC(=O)c1ccc(F)cc1)c1ccc2c(n1)CCCN2C(=O)OC1CCCC1 (stereo not shown) [Example 314, cyclopentyl 6-(1-(4-fluorobenzamido)ethyl)-3,4-dihydro-1,5-naphthyridine-1(2H)-carboxylate]"
2,1530,"CC(NC(=O)c1ccc(F)cc1)c1ccc2c(n1)CCCN2c1ncccc1F (stereo not shown) [Example 375, 4-fluoro-N-(1-(5-(3-fluoropyridin-2-yl)-5,6,7,8-tetrahydro-1,5-naphthyridin-2-yl)ethyl)benzamide]"
3,973,"COc1cccc(C(=O)NC(C)c2ccc3c(n2)CCCN3C(=O)OC2CC2)c1 (stereo not shown) [Example 336, cyclopropyl 6-(1-(3-methoxybenzamido)ethyl)-3,4-dihydro-1,5-naphthyridine-1(2H)-carboxylate]"
4,21.1,"CC(NC(=O)c1ccc(F)cc1)c1ccc2c(n1)CCCN2C(=O)OCc1ccn(C)n1 (stereo not shown) [Example 317, (1-methyl-1H-pyrazol-3-yl)methyl 6-(1-(4-fluorobenzamido)ethyl)-3,4-dihydro-1,5-naphthyridine-1(2H)-carboxylate]"
5,4.01,"COc1cccc(N2CCCc3nc(C(C)NC(=O)c4ccc(Cl)cc4)ccc32)n1 (stereo not shown) [Example 352, 4-chloro-N-(1-(5-(6-methoxypyridin-2-yl)-5,6,7,8-tetrahydro-1,5-naphthyridin-2-yl)ethyl)benzamide]"
6,88.2,"CC(NC(=O)c1ccc(C#N)cc1)c1ccc2c(n1)CCCN2C(=O)OC1CC1 (stereo not shown) [Example 337, cyclopropyl 6-(1-(4-cyanobenzamido)ethyl)-3,4-dihydro-1,5-naphthyridine-1(2H)-carboxylate]"
7,5.34,"Cc1nccc(N2CCCc3nc(C(C)C(=O)Nc4ccc(F)cc4)ccc32)n1 (stereo not shown) [Example 372, N-(4-fluorophenyl)-2-(5-(2-methylpyrimidin-4-yl)-5,6,7,8-tetrahydro-1,5-naphthyridin-2-yl)propanamide]"
8,45.3,"CC(NC(=O)c1ccc(F)cc1)c1ccc2c(n1)CCCN2C(=O)OCC1CCO1 (stereo not shown) [Example 313, oxetan-2-ylmethyl 6-(1-(4-fluorobenzamido)ethyl)-3,4-dihydro-1,5-naphthyridine-1(2H)-carboxylate]"
9,25.7,"C[C@H](NC(=O)c1ccc(F)cc1)c1ccc2c(n1)CCCN2c1cccc(F)n1 [Example 387, (S)-4-fluoro-N-(1-(5-(6-fluoropyridin-2-yl)-5,6,7,8-tetrahydro-1,5-naphthyridin-2-yl)ethyl)benzamide]"
